Where a name gives a salt, the structure may show the parent alone. Read-outs that look alike come from different tables or passages of the source. Where no end group is shown, it is not given here.
Key:
[1] = test system: TFK1 cells; assay: Cell viability assay (CellTiter-Glo, 72 h), GI50; type: cell-based, human; conditions: TFK1 sgPFKL-1 and sgPFKL-2 versus sgNC, Supplementary Fig. 2d
Procedure: Cell viability was assessed using the CellTiter-Glo luminescent cell viability assay (Vazyme, DD1101) following the manufacturer’s instructions. Briefly, 5000 cells per well were seeded into a 96-well white bottom permeable plate. Different concentrations of drugs were added to each well. After 72 h of treatment, a mixture of CellTier reagent and serum-free culture medium was prepared at a 1:1 ratio, and 100 μL of the mixture was added to each well. After incubation at 37 °C for 15 min, the luminescence was measured using a microplate reader (Synergy H1, Biotek). All the experiments were conducted in triplicate. Cell viability (relative luminescence) was defined as the luminescence of the drug treatment relative to that of the vehicle control.

[2] = test system: 1405R3; assay: High-throughput drug screen, CellTiter-Glo viability, 72 h; type: cell-based, human; parameters: AUC: scale not given here; conditions: 1405R3 DSRT analysis; for AUC: area under the dose-response curve; for MIN: lower asymptote of fitted dose-response curve; for EC50: 72 h, fitted dose-response curve, Min.Conc.tested 1, Max.Conc.tested 10000, read-out: EC50; for SLOPE: slope of fitted dose-response curve
Outline: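 Responses are drug sensitivity scores (efficacy cutoff ≥10), fitted from CellTiter-Glo luminescence. Each drug was given at five concentrations (10 to 0.001 μM, tenfold steps) in duplicate for 72 h. Cells were plated at 3000/well 24 h before dosing.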

[3] = test system: 783C-6; assay: as above; type: cell-based, human; parameters: AUC: scale not given here; conditions: for AUC: area under the dose-response curve; for EC50: 72 h, read-out: EC50
Outline: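 Cholangiocarcinoma cells were seeded at 3000/well in 384-well plates and dosed after 24 h. Drugs were tested at 10, 1, 0.1, 0.01 and 0.001 μM in duplicate for 72 h, with viability read by CellTiter-Glo luminescence.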

[4] = test system: HuCCT1 cells; assay: Confocal imaging of peptide infiltration into cells; type: in vitro ADME, human; conditions: confocal images, Supplementary Fig. 13b
Description: (§1) Supplementary Fig. 13. […] Scale bars, 100 μm. i Body weight of each group of HuCCT1 xenografts at the end of treatment is plotted (n = 6 mice per group, two-way ANOVA). j The tumor weight of each group of HuCCT1 xenografts at the end of treatment is plotted (n = 6 mice per group, Student’s t test).

[5] = test system: HuCCT1 cells; assay: CCK-8 cytotoxicity of the peptides; type: cell-based, human; conditions: CCK-8 assay, n=3 biological replicates, Supplementary Fig. 13c
Procedure: The cell proliferation rates were determined with a CCK-8 Cell Counting Kit (Vazyme, A311) in strict accordance with the provided protocol. The colony formation capacity was assessed by plating the cells in 6-well plates (5000 cells/well), followed by drug treatment over a 7-day period. Finally, the resulting colonies were subjected to crystal violet staining for subsequent quantification.
as §1

[6] = 783C-6 cells, DSS of DSRT analysis
[7] = 783C-6 cells, minimum of dose-response curve
[8] = 783C-6 cells, slope of fitted dose-response curve
[9] = 783C-6 DSRT analysis, DSS calculated from the dose-response curve
[10] = 783C-6 DSRT analysis, MIN of the fitted dose-response curve
[11] = 783C-6 DSRT analysis, CellTiter-Glo viability, fitted dose-response curve, Min.Conc.tested 1, Max.Conc.tested 10000
[12] = 783C-6 DSRT analysis, slope of the fitted dose-response curve

Compound | AUC [2] | DSS ([2]; drug sensitivity score) | MIN [2] | DSS [3, 6] | AUC ([3]; 783C-6 cells) | MIN [3, 7] | SLOPE [2] | also measured
C[C@@H]1NC(=O)[C@H]2CCCN2C(=O)[C@H](CCCCCC(=O)[C@@H]2CO2)NC(=O)[C@@H](C)NC1=O [HC-Toxin] | – | – | – | – | – | – | – | effect of PFKL knockout on drug efficacy (cell viability) [1]: significantly inhibited drug efficacy
COc1cc2c(NC3CCN(C(C)C)CC3)nc(C3CCCCC3)nc2cc1OCCCN1CCCC1 [UNC0638] | 19.7 | 1.9 | 59.1 | 2 | 21.3 | 73.8 | – | EC50 ([2]; Homo sapiens, CellTiter-Glo viability, GI50): 3.37 µM; EC50 ([3]; Homo sapiens): 1.54 µM
COc1cc2c(NC3CCN(C(C)C)CC3)nc(N3CCC(F)(F)CC3)nc2cc1OCCCN1CCCC1 [UNC0642] | 0.1 | 0 | 99.3 | 0 | 7.2 | 94 | – | –
CCCC(CCC)C(=O)O [Valproic acid sodium salt] | 8.4 | 0 | 92.2 | 0 | 4.4 | 85.4 | – | –
CCCC(CCC)C(=O)O [Valproic acid] | 18.4 | 0 | 88.1 | 0 | 4.4 | 85.5 | – | –
C[C@@H]1COC(Nc2ccc3ncnc(Nc4ccc(OCc5nccs5)c(Cl)c4)c3c2)=N1 [Varlitinib] | 11.5 | 0 | 91.8 | 1.5 | 22.8 | 79.7 | – | –
O=C(NNS(=O)(=O)c1ccccc1F)c1cc(F)cc(-c2ccccn2)c1 [WM-1119] | 51.4 | 0 | 66.9 | 0 | 7.3 | 75.9 | – | –
Cc1cc(-c2ccccc2)cc(C(=O)NNS(=O)(=O)c2cccc(O)c2)c1F [WM-3835] | 14.5 | 0 | 90.6 | 0 | 15.7 | 93.1 | – | –
Cc1cc(-c2ccccc2)cc(C(=O)NNS(=O)(=O)c2ccccc2)c1F [WM-8014] | 16.3 | 0 | 89.5 | 0 | 5.5 | 81.8 | -0.1 | SLOPE [3, 8]: -1
CCC(=O)CCCCC[C@@H]1NC(=O)[C@H]2CCCCN2C(=O)[C@H]([C@@H](C)CC)NC(=O)[C@H](Cc2cn(OC)c3ccccc23)NC1=O [apicidin] | – | – | – | – | – | – | – | effect of PFKL knockout on drug efficacy (cell viability) [1]: significantly inhibited drug efficacy
O=C(/C=C/c1cccc(S(=O)(=O)Nc2ccccc2)c1)NO [belinostat, reference compound] | 121.5 | – | 0 | – | – | – | – | DSS ([2]; DSS): 12.9; EC50 ([2]; Homo sapiens, CellTiter-Glo): 0.683 µM; DSS [3, 9]: 19; MIN [3, 10]: 0.2; AUC ([3]; 783C-6 DSRT analysis): 173.8; EC50 ([3]; Homo sapiens): 0.195 µM; effect of PFKL knockout on drug efficacy (cell viability) [1]: significantly inhibited drug efficacy
O=C(CCCCCCC(=O)Nc1ccccc1)NO [vorinostat, reference compound] | 87 | 10 | 6.1 | 11.5 | 104.1 | 3.6 | – | effect of PFKL knockout on drug efficacy (cell viability) [1]: significantly inhibited drug efficacy
(-)-Parthenolide | 33.7 | – | 34.2 | – | – | – | -2.5 | DSS ([2]; DSS): 3.6; EC50 ([2]; CellTiter-Glo): 3.14 µM; EC50 [3, 11]: 1.46 µM; DSS [3, 9]: 2.7; MIN [3, 10]: 68.4; AUC ([3]; 783C-6 DSRT analysis): 26.5; SLOPE [3, 12]: -2.5
AR-42 | 98.5 | – | 1.2 | – | – | – | -1.5 | DSS ([2]; DSS): 11; EC50 ([2]; CellTiter-Glo): 1.03 µM; EC50 [3, 11]: 1.08 µM; DSS [3, 9]: 10.5; MIN [3, 10]: 2.3; AUC ([3]; 783C-6 DSRT analysis): 96.3; SLOPE [3, 12]: -1.3
AZD4547 | 4.8 | – | 88.1 | – | – | – | – | DSS ([2]; DSS): 0; EC50 [3, 11]: 2.23 µM; DSS [3, 9]: 3.2; MIN [3, 10]: 54.8; AUC ([3]; 783C-6 DSRT analysis): 29.6
CDRIKQSASGKRRVFIVETMRRRRRRRR [∆562-R8] | – | – | – | – | – | – | – | cellular permeability [4]: good cellular permeability; cytotoxicity [5]: low cytotoxicity
CDRIKQSASGTKRRVFIVETMRRRRRRRR [PFKL-552-572-R8] | – | – | – | – | – | – | – | cellular permeability [4]: good cellular permeability; cytotoxicity [5]: low cytotoxicity
NKL 22 | 6.3 | 0.2 | 83.7 | 0 | 3.5 | 92.5 | -2.5 | SLOPE [3, 8]: -2.5
OG-L002 | 0.1 | 0 | 100 | 0 | 3 | 94.7 | -0.1 | SLOPE [3, 8]: -0.5
TC-H 106 | 47 | 2.6 | 75.6 | 5.3 | 61.5 | 48.5 | -0.4 | EC50 ([3]; 783C-6 cells, DSRT analysis, CellTiter-Glo viability, concentrations tested 1 to 10000 (unit inferred), GI50): 0.923 µM; SLOPE [3, 8]: -0.6

— publication PMC12518634, “The noncanonical function of liver-type phosphofructokinase potentiates the efficacy of HDAC inhibitors in cancer” (Signal Transduction and Targeted Therapy, 2025)
